From paper PMC4792557 (Oncotarget, 2015)

Tests used:
Assay in all cases: cells
A549 = system: A549; design: species or system H23, H460, H358; CellTiter-Glo ATP viability of NSCLC cell lines; conditions: Homo sapiens, A549, 48 h, read-out: AZD6738 GI50 (uM)
Experimental: (§1) ATP levels were assessed as surrogate measure of viability was assessed using the CellTiter-Glo Luminescent Cell Viability Assay (Promega) and Safire^2 plate reader (Tecan). Raw data were corrected for background luminescence prior to further analysis. […] GI50 values, defined as the dose X at which Y = 50%, were extrapolated from dose response curves. For combination treatments, data were normalized to the mean of untreated controls. Loewe excess matrices were generated using Chalice Analyzer Online (Horizon CombinatoRx) and mean normalized inhibition values. […] Log dose response curves were generated in GraphPad Prism 6 by nonlinear regression (log(inhibitor) vs. normalized response with variable slope) of log-transformed (x = log(x)), normalized data. IC50 values were calculated by Prism 6.

H358 = system: H358; design: species or system H23, H460, A549; CellTiter-Glo ATP viability of NSCLC cell lines; conditions: Homo sapiens, NCI-H358, 48 h, read-out: AZD6738 GI50 (uM)
Experimental: as §1

H460 = system: H460; design: species or system H23, A549, H358; CellTiter-Glo ATP viability of NSCLC cell lines; conditions: Homo sapiens, NCI-H460, 48 h, read-out: AZD6738 GI50 (uM)
Experimental: as §1

H23 = system: H23; design: species or system H460, A549, H358; CellTiter-Glo ATP viability of NSCLC cell lines; conditions: Homo sapiens, NCI-H23, 48 h, read-out: AZD6738 GI50 (uM)
Experimental: as §1

SMILES: C[C@@H]1COCCN1c1cc(C2([S@](C)(=N)=O)CC2)nc(-c2cc[nH]c3nccc2-3)n1 [AZD6738]
- GI50 (A549): 5.42 µM
- GI50 (H358): 6.95 µM
- GI50 (H460): 1.05 µM
- GI50 (H23): 2.38 µM
